The record followed here is ChEMBL document CHEMBL3585323, “Effect of intercalator substituent and nucleotide sequence on the stability of DNA- and RNA-naphthalimide complexes” (Bioorg Med Chem, 2015).

Test [1] deals with Nucleic Acid. As to the kind of experiment: Induction of DNA intercalation using 5'-d(ATATATATATAT)2-3' at 250 uM by UV-vis spectrophotometric analysis. Format: nucleic-acid assay.
Test [2] relates to Nucleic Acid. As to the kind of experiment: Induction of DNA intercalation using 5'-d(ATATATGATATA)-3'/5'-(TATATCATATAT)-3' at 250 uM by UV-vis spectrophotometric analysis. Format: nucleic-acid assay.
In test [3] the test system is Nucleic Acid. As to the kind of experiment: Induction of DNA intercalation using 5'-d(ATATAGTATATA)-3'/5'-(TATATACTATAT)-3' at 250 uM by UV-vis spectrophotometric analysis. Format: nucleic-acid assay.
Test [4] deals with Nucleic Acid. As to the kind of experiment: Induction of DNA intercalation using 5'-d(GTAATATTAC)2-3' at 250 uM by UV-vis spectrophotometric analysis. Format: nucleic-acid assay.
Test [5] relates to Nucleic Acid. The experiment in a line: Induction of DNA intercalation using 5'-d(GCGCGCGC)2-3' at 250 uM by UV-vis spectrophotometric analysis. Format: nucleic-acid assay.
The subject of test [6] is Nucleic Acid. As to the kind of experiment: Induction of DNA intercalation using 5'-d(GTCCGCGGAC)2-3' at 250 uM by UV-vis spectrophotometric analysis. Format: nucleic-acid assay.
In test [7] the test system is Nucleic Acid. The experiment in a line: Induction of DNA intercalation using 5'-d(GTCCGTCGGAC)-3'/5'-(GTCCGACGGAC)-3' at 250 uM by UV-vis spectrophotometric analysis. Format: nucleic-acid assay.
The test system of test [8] is Nucleic Acid. The experiment in a line: Induction of DNA intercalation using 5'-r(GCGCGCGC)2-3' at 250 uM by UV-vis spectrophotometric analysis. Format: nucleic-acid assay.
Test [9] has as its system Nucleic Acid. The experiment in a line: Induction of DNA intercalation using 5'-r(GUCCGCGGAC)2-3' at 250 uM by UV-vis spectrophotometric analysis. Format: nucleic-acid assay.
The nature of test [10]: Binding affinity to 5'-d(ATATATATATAT)2-3' DNA assessed as change in melting temperature at 1:1 DNA to compound molar ratio by spectrophotometric analysis.
A short description of test [11]: Binding affinity to 5'-d(ATATATGATATA)-3'/5'-(TATATCATATAT)-3' DNA assessed as change in melting temperature at 1:1 DNA to compound molar ratio by spectrophotometric analysis.
Test [12] is described as follows: Binding affinity to 5'-d(ATATAGTATATA)-3'/5'-(TATATACTATAT)-3' DNA assessed as change in melting temperature at 1:1 DNA to compound molar ratio by spectrophotometric analysis.
A short description of test [13]: Binding affinity to 5'-d(GTAATATTAC)2-3' DNA assessed as change in melting temperature at 1:1 DNA to compound molar ratio by spectrophotometric analysis.
A short description of test [14]: Binding affinity to 5'-d(GCGCGCGC)2-3' DNA assessed as change in melting temperature at 1:1 DNA to compound molar ratio by spectrophotometric analysis.
Test [15] in a line: Binding affinity to 5'-d(GTCCGCGGAC)2-3' DNA assessed as change in melting temperature at 1:1 DNA to compound molar ratio by spectrophotometric analysis.
Test [16] is described as follows: Binding affinity to 5'-d(GTCCGTCGGAC)-3'/5'-(GTCCGACGGAC)-3' DNA assessed as change in melting temperature at 1:1 DNA to compound molar ratio by spectrophotometric analysis.
Test [17] in a line: Binding affinity to 5'-r(GCGCGCGC)2-3' DNA assessed as change in melting temperature at 1:1 DNA to compound molar ratio by spectrophotometric analysis.
The nature of test [18]: Binding affinity to 5'-r(GUCCGCGGAC)2-3' DNA assessed as change in melting temperature at 1:1 DNA to compound molar ratio by spectrophotometric analysis.
Test [19] deals with Nucleic Acid. As to the kind of experiment: Induction of DNA intercalation using 5'-d(CGATCG)2-3' at 1:0.5 DNA to compound molar ratio by NMR analysis. Format: nucleic-acid assay.

One may read the ΔTm as the shift of the melting midpoint relative to a reference.

Active and inactive are the calls of the source. The rule behind the calls is not given here.

Take `CN(C)CCN1C(=O)c2cccc3cc(I)cc(c23)C1=O`: the result with Nucleic Acid [1], with Nucleic Acid [2], with Nucleic Acid [3], in the test with Nucleic Acid [4], with Nucleic Acid [5] and in the test with Nucleic Acid [6] was Active. Moreover, the outcome with Nucleic Acid [7], with Nucleic Acid [8] and with Nucleic Acid [9] was Active. Besides, the ΔTm in test [10] was determined as 0 °C; in test [11] it was 8.4 °C; in [12], 1.7 °C; in test [13] it was 4.4 °C; in [14], 2.5 °C; in test [15], 0 °C. In addition, the ΔTm in test [16], in test [17] and in test [18] was 0 °C in each case.
As to `Cc1cc2c3c(cccc3c1)C(=O)N(CCN(C)C)C2=O`, the result in the test on Nucleic Acid [1], in the test on Nucleic Acid [2], in the test on Nucleic Acid [3], with Nucleic Acid [4], in the test with Nucleic Acid [5] and in the test on Nucleic Acid [6] was Active. For the same compound, the outcome in the test with Nucleic Acid [7], with Nucleic Acid [8] and with Nucleic Acid [9] was Active. Further, the shift in melting temperature (ΔTm) amounted to 0 °C in test [10]; 5.1 °C in test [11]; 0 °C in [12]; 0 °C in test [13]; 3.2 °C in test [14]; 2.7 °C in test [15]. Further, the ΔTm in test [16], in test [17] and in [18] was 0 °C in each case.
`CN(C)CCN1C(=O)c2cccc3cc(O)cc(c23)C1=O`: the result in the test with Nucleic Acid [1], in the test with Nucleic Acid [2], in the test with Nucleic Acid [3], with Nucleic Acid [4], with Nucleic Acid [5] and in the test with Nucleic Acid [6] was Active. Moreover, the result in the test with Nucleic Acid [7], with Nucleic Acid [8] and in the test on Nucleic Acid [9] was Active. The ΔTm in [10] stood at 0 °C; in [11] it was 14.7 °C; in test [12], 5.7 °C; in test [13] it was 4.4 °C; in test [14] it was 1.6 °C; in test [15], 1.6 °C. For the same compound, the results for the shift in melting temperature (ΔTm) in test [16], in test [17] and in test [18] were 2.2 °C, 0 °C and 0 °C, respectively.
As for `CC(C)Nc1cc2c3c(cccc3c1)C(=O)N(CCN(C)C)C2=O`, the outcome in the test with Nucleic Acid [1], in the test with Nucleic Acid [2], with Nucleic Acid [3], in the test with Nucleic Acid [4], in the test on Nucleic Acid [5] and in the test with Nucleic Acid [6] was Active. For the same compound, the result in the test on Nucleic Acid [7], in the test on Nucleic Acid [8] and with Nucleic Acid [9] was Active. Further, the ΔTm in test [10] worked out at 0 °C; in test [11], 16.4 °C; in test [12], 0 °C; in [13], 7.3 °C; in [14] it was 7.9 °C; in [15], 0 °C. The ΔTm in [16] is 2.1 °C; in [17], 0 °C; in test [18], 1.1 °C.
Consider `CN(C)CCN1C(=O)c2cccc3cc(Br)cc(c23)C1=O`, for which the result in the test with Nucleic Acid [1], in the test with Nucleic Acid [2], in the test with Nucleic Acid [3], with Nucleic Acid [4], in the test on Nucleic Acid [5] and in the test with Nucleic Acid [6] was Active. In addition, the result with Nucleic Acid [7], in the test with Nucleic Acid [8] and with Nucleic Acid [9] was Active. Besides, the ΔTm was 0 °C in test [10]; 13.9 °C in [11]; 10.8 °C in [12]; 6.3 °C in test [13]; 9.5 °C in [14]; 6 °C in [15]. For the same compound, the shift in melting temperature (ΔTm) in test [16] amounted to 0 °C; in test [17], 1.6 °C; in [18], 2 °C.
`CN(C)CCN1C(=O)c2cccc3cc(Cl)cc(c23)C1=O`: the result in the test on Nucleic Acid [1], with Nucleic Acid [2], in the test with Nucleic Acid [3], in the test on Nucleic Acid [4], with Nucleic Acid [5] and with Nucleic Acid [6] was Active. Also, the outcome in the test on Nucleic Acid [7], in the test with Nucleic Acid [8] and in the test on Nucleic Acid [9] was Active. Besides, the ΔTm was found to be 0 °C in test [10]; 7 °C in test [11]; 0 °C in test [12]; 4.5 °C in test [13]; 6.3 °C in test [14]; 1.1 °C in [15]. Besides, the ΔTm in [16], in [17] and in test [18] was 0 °C each time.
In the case of `CN(C)CCN1C(=O)c2cccc3cccc(c23)C1=O`, the outcome with Nucleic Acid [1], with Nucleic Acid [2], in the test on Nucleic Acid [3], in the test on Nucleic Acid [4], with Nucleic Acid [5] and in the test with Nucleic Acid [6] was Active. Further, the outcome with Nucleic Acid [7], with Nucleic Acid [8] and with Nucleic Acid [9] was Active. Also, the ΔTm worked out at 0 °C in test [10]; 19.4 °C in [11]; 11.6 °C in [12]; 8.1 °C in test [13]; 8.7 °C in test [14]; 5.6 °C in test [15]. Further, the thermal shift (ΔTm) in test [16], in test [17] and in [18] was 0 °C in each case.
With `CN(C)CCN1C(=O)c2cccc3cc(N)cc(c23)C1=O`, the result in the test with Nucleic Acid [1], in the test on Nucleic Acid [2], with Nucleic Acid [3], in the test on Nucleic Acid [4], in the test with Nucleic Acid [5] and with Nucleic Acid [6] was Active. Further, the outcome in the test on Nucleic Acid [7], in the test with Nucleic Acid [8], in the test with Nucleic Acid [9] and in the test on Nucleic Acid [19] was Active. In addition, the ΔTm in test [10] was found to be 0 °C; in [11], 14.6 °C; in [12] it was 10.1 °C; in test [13], 11.6 °C; in test [14], 16.9 °C; in test [15], 5.1 °C. Moreover, the ΔTm in test [16] was 0 °C; in test [17], 1.1 °C; in test [18], 1 °C.
As to `CN(C)CCN1C(=O)c2cccc3cc(-c4ccccc4)cc(c23)C1=O`, the result with Nucleic Acid [1], with Nucleic Acid [2], in the test on Nucleic Acid [3], with Nucleic Acid [4], in the test with Nucleic Acid [5] and in the test on Nucleic Acid [6] was Active. Also, the outcome in the test on Nucleic Acid [7], in the test on Nucleic Acid [8] and in the test with Nucleic Acid [9] was Active. Moreover, the ΔTm in [10] turned out to be 0 °C; in [11], 1.3 °C; in test [12], 5.8 °C; in test [13], 0 °C; in test [14], 0 °C; in [15], 0 °C. Besides, the ΔTm in test [16], in test [17] and in test [18] was 0 °C in each case.
Take `CC(=O)Nc1cc2c3c(cccc3c1)C(=O)N(CCN(C)C)C2=O`: the outcome with Nucleic Acid [1], in the test on Nucleic Acid [2], with Nucleic Acid [3], with Nucleic Acid [4], with Nucleic Acid [5] and in the test on Nucleic Acid [6] was Active. Moreover, the outcome with Nucleic Acid [7], in the test on Nucleic Acid [8] and in the test with Nucleic Acid [9] was Active. Besides, the thermal shift (ΔTm) in test [10] was 0 °C; in test [11], 8.8 °C; in test [12], 4.7 °C; in [13], 8.6 °C; in test [14], 4.6 °C; in test [15] it was 5.6 °C. Moreover, the ΔTm in test [16], in [17] and in test [18] was 0 °C in each case.
